{"source": "patent US20070254891A1", "about": "“Crystalline forms of 4-(2-fluorophenyl)-6-methyl-2-(piperazin-1-yl)thieno[2,3-d]pyrimidine” (Dynogen Pharmaceuticals, Inc., priority 2006, published 2007)", "type_in_all_cases": "physicochemical", "key": {"[1]": {"assay": "pKa determination (Sirius GlpKa, potentiometric and UV)", "method": "pKa was measured on a Sirius GlpKa instrument equipped with a D-PAS attachment. A UV measurement was taken when the sample was in an aqueous solution and a potentiometric was taken when the sample was in a MeOH:H2O mixture. Measurements were taken at 25° C. The titration media was ionic strength adjusted with 0.15M KCl. Values determined from potentiometric measurements in the MeOH:H2O mixtures were corrected to 0% co-solvent via a Yasuda-Shedlovsky extrapolation. The data was refined using Refinement Pro software version 1.0. Prediction of pKa values was made using ACD pKa prediction software Ver 8."}, "[2]": {"assay": "Accelerated light stability study (Atlas Suntest CPS+ light box)", "method": "(§1) Purity analysis was performed on an Agilent HP1100 system equipped with a diode array detector and using Chemstation V9 software. Gradient, Reverse Phase methods (duration approximately 40 minutes) were used in a HPLC1 system. A Thermo-Electron Corporation HyPurity C18 5 um 150×4.6 mm column was used at 25° C. Test samples were made-up of 0.2 mg/ml of the compound in acetonitrile:water (1:1 v/v). 10 μl of sample was injected into the column. The flow rate through the column was 1 ml/min and the detection wavelength, bandwidth was 254,8 nm. Phase A was 0.1% phosphoric acid in water and Phase B was 0.1% phosphoric acid in acetonitrile. The mobile phase timetable is shown below in Table 2.\nAccelerated Light stability experiments were conducted using an Atlas Suntest CPS+light box. The light exposure was set to 550 W/m^2 and the run time was set to 168 hours (1 week). The chamber temperature and black standard temperature (which indicates how hot the test samples will become) were set to 25° C. The actual temperature in the sample chamber was 40° C.\nForm I and II were assessed using an Atlas Suntest CPS+ light box to determine the effect of their exposure to light over a period of 168 hours (1 week). The light exposure was set to 550 W/M^2. Samples were weighed into either open weighing boats covered by pyrex glass beakers, glass vials with open tops (no lid), or glass vials covered in Aluminum foil. In all instances, the material was spread out into an even, thin layer."}, "[3]": {"assay": "Aqueous solubility with pH measurement", "settings": "water; for solubility at 24 h: 25 °C, thermodynamic from solid", "method": "Each sample was suspended in 0.25 ml of solvent (water) in an amount effective to produce a maximum final concentration of greater than or equal to about 10 mg/ml of the parent free form of the compound (i.e., adding excess sample to account for the weight of the salt). […] The filtrate was then diluted down 101 times."}, "[4]": {"assay": "LogP / LogPion / LogD by potentiometric titration (octanol:ISA water)", "method": "LogP was determined using a potentiometric titration on a Sirius GlpKa instrument using three ratios of Octanol:ISA water to generate Log P, Log Pion, and Log D values. The data was refined using Refinement Pro software version 1.0. Predictions of LogP were made using ACD Ver 8 and Syracuse KOWWIN Ver 1.67 software."}, "[5]": {"assay": "Storage at 40° C./75% RH under ambient light (XRPD, HPLC purity, colour)", "method": "as §1\nForm I was characterized by pKa, LogP, LogPion and LogD determination and prediction, XRPD before and after storage at 40° C./75% RH for 4 weeks, PLM, DSC and TGA, ^1HNMR, solubility in water with pH measurement, HPLC purity before and after storage at 40° C./75% RH for 4 weeks, water content, GVS with XRPD and purity analysis after measurement, and VT-XRPD.\nForm II has been characterized using XRPD before and after storage at 40° C./75% RH for 3 weeks, PLM, DSC and TGA, Solubility in water with pH measurement, HPLC purity, Water content, GVS with XRPD analysis after measurement, and VT-XRPD."}, "[6]": {"assay": "Gravimetric vapor sorption (GVS)", "method": "GVS was used to determine the amount of water adsorbed by a sample. Briefly, samples were run on a Hiden IGASorp moisture sorption analyzer running CFRSorp software. Sample sizes were typically 10 mg. A moisture adsorption desorption isotherm was performed as outlined below in Table 3 (2 scans giving 1 complete cycle). Samples were loaded/unloaded at typical room humidity and temperature (40% RH, 25° C.). Samples were then analyzed by XRPD after GVS analysis, e.g., to determine whether any structural changes took place after adsorption of water. The standard isotherm was performed at 25° C. at 10% RH intervals over a 0-90% RH range."}, "[7]": {"assay": "10 week stability study at 40° C./75% RH and 60° C./75% RH, light and dark", "method": "as §1\nSamples of Form I and II were tested at 40° C./75% RH and 60° C./75% RH in both light and dark conditions for up to 10 weeks. As the samples were located in temperature/humidity control chambers, the exposure to light was limited to normal laboratory light conditions with artificial light and some winter daylight through the windows.\nApproximately 100 mg of each sample was weighed into plastic weighing boats and spread out to form an even thin layer for each of the temperature/humidity/light conditions, as shown in Table 6. The dark samples were protected from exposure to light by wrapping them in aluminum foil. The foil was pierced to allow exposure to humidity.\nTime points chosen for HPLC analysis during the stability study were T=0, 1, 2, 5 and 10 weeks. At 10 weeks, the samples were analyzed using XRPD, DSC and polarized light microscopy."}, "[8]": {"assay": "Variable temperature XRPD (VT-XRPD)", "settings": "heating; irreversible; hydrochloride", "method": "Samples run under ambient conditions were prepared as flat plate specimens using powder without grinding unless otherwise stated. Approximately 1-2 mg of the sample was lightly pressed on a glass slide to obtain a flat surface. Samples run under non-ambient conditions (VT-XRPD) were mounted on a silicon wafer with heat conducting compound. The sample was then heated to the appropriate temperature at about 20° C./minute and subsequently held isothermally for about 1 minute before data collection was initiated.\nThree samples were studied using variable temperature XRPD (VT-XRPD): Form I as received, substantially pure Form I as prepared in Example 3, and substantially pure Form II as prepared in Example 3. VT-XRPD studies were initially carried out on substantially pure Form I as prepared in Example 3 with measurements at 25° C., 50° C., 80° C., 150° C., 220° C., 225° C., 250° C. and cooling to 29° C. Prior to measurement of the last XRPD pattern, the material was crushed due to the growth of large crystals. An overlay of the XRPD patterns can be found in FIG. 4A.\nAn experiment was also carried out on Form I as received, with measurements at 26° C., 50° C., 150° C., 200° C., 210° C., 220° C., 230° C. and cooling to 27° C. An overlay of the XRPD patterns can be found in FIG. 4B. […] (see peak at ˜14.7 2θ). […]"}, "[9]": {"settings": "4 weeks at 40° C./75% RH, ambient light"}}, "note": "Read-outs that look alike come from different tables or passages of the source."}
{"smiles": "Cc1cc2c(-c3ccccc3F)nc(N3CCNCC3)nc2s1.Cl", "note": "[Form I, 4-(2-fluorophenyl)-6-methyl-2-(piperazin-1-yl)thieno[2,3-d]pyrimidine hydrochloride]", "values": [{"measurement": "pKa", "setting": "[1]; MeOH:H2O mixtures, extrapolated to 0% co-solvent, potentiometric determination in MeOH/water, Yasuda-Shedlovsky extrapolation, read-out: pKa (basic)", "result": 8.64}, {"measurement": "pKa", "setting": "[1]; aqueous solution, UV spectroscopy (D-PAS attachment), read-out: pKa of second basic centre", "result": 0.81}, {"measurement": "Purity after 1 week light exposure", "setting": "[2]; 20 ml glass vial covered in Al foil with loose lid (control)", "result": 99.9}, {"measurement": "Purity after 1 week light exposure", "setting": "[2]; 20 ml glass vial, 550 W/m^2, 168 hours, hydrochloride", "result": 77.8}, {"measurement": "HPLC purity after accelerated light study", "setting": "[2]; one week, FIGS. 6A/6B (open weighing boats), hydrochloride", "result": 79.4, "unit": "%"}, {"measurement": "Purity after 1 week light exposure", "setting": "[2]; open weighing boat, 550 W/m^2, 168 hours, hydrochloride", "result": 79.4}, {"measurement": "pH of the solubility sample", "setting": "[3]; 25° C., 24 hours, hydrochloride", "result": 6.33}, {"measurement": "solubility at 24 h", "setting": "[3]; read-out: Aqueous solubility (as the hydrochloride)", "result": 2100, "unit": "µg/mL"}, {"measurement": "solubility at 24 h", "setting": "[3]; read-out: Aqueous solubility (free base equivalent)", "result": 1700, "unit": "µg/mL"}, {"measurement": "LogPion", "setting": "[4]; 0.15M KCl(Aq) / 1-octanol", "result": 1.41}, {"measurement": "logP", "setting": "[4]; 1-octanol / 0.15M KCl (aq), 0.15M KCl(Aq) / 1-octanol", "result": 3.96}, {"measurement": "logD", "setting": "[4]; octanol/ISA water, pH 7.4", "result": 2.72}, {"measurement": "Colour of material surface after storage", "setting": "[5]; [9]", "result": "gone yellow"}, {"measurement": "HPLC purity after storage", "setting": "[5]; [9]", "result": 99.0, "unit": "%"}, {"measurement": "XRPD pattern after storage", "setting": "[5]; 40° C./75% RH for four weeks", "result": "unchanged"}, {"measurement": "XRPD reanalysis after GVS", "setting": "[6]; after one adsorption/desorption cycle", "result": "did not show any change"}, {"measurement": "GVS total weight increase", "setting": "[6]; between 0 and 90% RH, single cycle, 25° C., hydrochloride", "result": 5.0, "unit": "%"}, {"measurement": "GVS weight increase", "setting": "[6]; between 20% and 30% RH", "result": "about 4.8%"}, {"measurement": "GVS weight increase, equivalent water", "setting": "[6]; between 20% and 30% RH", "result": "1.0 moles of water"}, {"measurement": "Purity %", "setting": "[7]; 40° C./75% RH, Dark, 1 week", "result": 99.9, "unit": "%"}, {"measurement": "Purity %", "setting": "[7]; 40° C./75% RH, Dark, 2 weeks", "result": 100, "unit": "%"}, {"measurement": "Purity %", "setting": "[7]; 40° C./75% RH, Dark, 5 weeks", "result": 100, "unit": "%"}, {"measurement": "Purity %", "setting": "[7]; 40° C./75% RH, Dark, 10 weeks, hydrochloride", "result": 99.9, "unit": "%"}, {"measurement": "Purity %", "setting": "[7]; 40° C./75% RH, Light, 1 week", "result": 99.9, "unit": "%"}, {"measurement": "Purity %", "setting": "[7]; 40° C./75% RH, Light, 2 weeks", "result": 100, "unit": "%"}, {"measurement": "Purity %", "setting": "[7]; 40° C./75% RH, Light, 5 weeks, hydrochloride", "result": 99.8, "unit": "%"}, {"measurement": "Purity %", "setting": "[7]; 40° C./75% RH, Light, 10 weeks, hydrochloride", "result": 99.4, "unit": "%"}, {"measurement": "Purity %", "setting": "[7]; 60° C./75% RH, Dark, 1 week", "result": 99.9, "unit": "%"}, {"measurement": "Purity %", "setting": "[7]; 60° C./75% RH, Dark, 2 weeks, hydrochloride", "result": 99.9, "unit": "%"}, {"measurement": "Purity %", "setting": "[7]; 60° C./75% RH, Dark, 5 weeks", "result": 100, "unit": "%"}, {"measurement": "Purity %", "setting": "[7]; 60° C./75% RH, Dark, 10 weeks, hydrochloride", "result": 100, "unit": "%"}, {"measurement": "Purity %", "setting": "[7]; 60° C./75% RH, Light, 1 week", "result": 99.8, "unit": "%"}, {"measurement": "Purity %", "setting": "[7]; 60° C./75% RH, Light, 2 weeks, hydrochloride", "result": 99.8, "unit": "%"}, {"measurement": "Purity %", "setting": "[7]; 60° C./75% RH, Light, 5 weeks, hydrochloride", "result": 99.5, "unit": "%"}, {"measurement": "Purity %", "setting": "[7]; 60° C./75% RH, Light, 10 weeks, hydrochloride", "result": 99.4, "unit": "%"}, {"measurement": "Yellow coloration of the surface (visual inspection)", "setting": "[7]; after 10 weeks, both storage conditions", "result": "greatest"}, {"measurement": "Purity %", "setting": "[7]; time point 0 weeks, hydrochloride", "result": 100, "unit": "%"}, {"measurement": "Stability as indicated by the HPLC data", "setting": "[7]; up to 10 weeks, 40° C./75% RH and 60° C./75% RH", "result": "stable to ambient light levels as well as elevated temperature and humidity"}]}
{"smiles": "Cc1cc2c(-c3ccccc3F)nc(N3CCNCC3)nc2s1.Cl", "note": "[Form III, 4-(2-fluorophenyl)-6-methyl-2-(piperazin-1-yl)thieno[2,3-d]pyrimidine hydrochloride]", "values": [{"measurement": "Temperature of conversion into Form II", "setting": "[8]", "result": "200-220 °C"}]}
